One experiment relates to resistant E. coli. The experiment can be described thus: MIC in Mueller-Hinton II broth, antibiotic + BisEDT. The format is cell-based, Escherichia coli. The source says:
Chloramphenicol and ampicillin resistant Escherichia coli were made sensitive to these drugs by the addition of subMIC BisEDT (Table 24).
Tetracycline resistant Escherichia coli were made sensitive to doxycycline by the addition of subMIC BisEDT (Table 25).

For experiment [1], the system named is S. epidermidis (methicillin-susceptible and methicillin-resistant). The experiment can be described thus: Graft infection rat model, quantitative graft culture. The format is in vivo. The following applies: rats, s.c. Dacron graft, explanted at 7 days, 0.1 mg/l BTs, 10 mg/l RIP, 10 mg/l rifampin. How it is done: As summarized in Table 21, implants impregnated with 0.1 μg/ml BisEDT, 10 μg/ml RIP and 10 μg/ml rifampin, alone or combined were implanted s.c. into rats. Physiological solution (1 ml) containing the MS and MR strains at 2×10^7 cfu/ml was inoculated onto the graft surface using a tuberculin syringe. All grafts were explanted at 7 days following implantation and sonicated for 5 minutes in sterile saline solution to remove the adherent bacteria. Quantitation of viable bacteria was obtained by culturing dilutions on blood agar plates. The limit of detection was approximately 10 cfu/cm^2.

A further experiment has as its system S. aureus. As to the kind of experiment: Broth dilution MIC/MBC, BT-antibiotic combinations. The format is cell-based, Staphylococcus aureus. On the procedure: Materials & Methods. Susceptibility studies were performed by broth dilution in 96-well tissue culture plates (Nalge Nunc International, Denmark) in accordance with NCCLS protocols (National Committee for Clinical Laboratory Standards. (1997). Methods for Dilution Antimicrobial Susceptibility Tests for Bacteria that Grow Aerobically: Approved Standard M7-A2 and Informational Supplement M100-S10. NCCLS, Wayne, Pa., USA).
Briefly, overnight bacterial cultures were used to prepare 0.5 McFarland standard suspensions, which were further diluted 1:50 (˜2×10^6 cfu/mL) in cation-adjusted Mueller-Hinton broth medium (BBL, Cockeysville, Md., USA). BTs (prepared as described above) and antibiotics were added at incremental concentrations, keeping the final volume constant at 0.2 mL. Cultures were incubated for 24 h at 37° C. and turbidity was assessed by absorption at 630 nm using an ELISA plate reader (Biotek Instruments, Winooski, Vt., USA) according to the manufacturer's recommendations. […] Viable bacterial counts (cfu/mL) were determined by standard plating on nutrient agar.
The checkerboard method was used to assess the activity of antimicrobial combinations. The fractional inhibitory concentration index (FICI) and the fractional bactericidal concentration index (FBCI) were calculated, according to Eliopoulos et al. (Eliopoulos and Moellering, (1996) Antimicrobial combinations. In Antibiotics in Laboratory Medicine (Lorian, V., Ed.), pp. 330-96, Williams and Wilkins, Baltimore, Md., USA). Synergy was defined as an FICI or FBCI index of […], no interaction at >0.5-4 and antagonism at >4 (Odds, F C (2003) Synergy, antagonism, and what the chequerboard puts between them. Journal of Antimicrobial Chemotherapy 52:1). Synergy was also defined conventionally as ≧4-fold decrease in antibiotic concentration.
Background: Dilution methods test growth across graded concentrations, often in twofold steps.

The next experiment deals with S. epidermidis biofilm. The experiment can be described thus: Biofilm prevention concentration (BPC), BisEDT and antibiotics. The format is cell-based, Staphylococcus epidermidis. The following applies: 0.05 μg/ml BisEDT. On the procedure:
(§1) S. epidermidis grown in TSB+2% glucose in polystyrene plates for 48 h at 37° C. Gatifloxacin (GF), clindamycin (CM), minocycline (MC), gentamicin (GM), vancomycin (VM), cefazolin (CZ), nafcillin (NC), and rifampicin (RP). […]

In experiment [2] the test system is S. epidermidis. The experiment can be described thus: Broth dilution MIC/MBC, BT-antibiotic combinations. The format is cell-based, Staphylococcus epidermidis. In outline: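 Checkerboard broth microdilution per NCCLS in cation-adjusted Mueller-Hinton broth, ~2×10^6 cfu/mL inoculum, BTs and antibiotics at incremental concentrations, 24 h at 37°C; growth read as A630, viable counts by plating on nutrient agar. FICI/FBCI computed; synergy ≤0.5 (or ≥4-fold antibiotic drop), no interaction >0.5-4, antagonism >4.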

Experiment [3] concerns S. epidermidis S2400-1 biofilm. The experiment can be described thus: Biofilm prevention, BisEDT-antibiotic combinations. The format is cell-based, Staphylococcus epidermidis. On the procedure:
as §1

For experiment [4], the system named is S. epidermidis. As to the kind of experiment: Growth inhibition (MIC) and MBC, BisEDT and antibiotics. The format is cell-based, Staphylococcus epidermidis. The source says:
Results are expressed as the mean change in MIC (dilution steps) with increasing BisEDT (n=3). See legend in FIG. 5 for antibiotic definitions.
The MIC change was most pronounced for clindamycin and gentamicin, followed by vancomycin, cefazolin, minocycline, gatifloxacin and nafcillin, with rifampicin unaffected.
Minimum bactericidal concentration (MBC) for most antibiotics tested against S. epidermidis decreased slightly with subMIC BisEDT. […] Clindamycin is a bacteriostatic agent, which explains its lack of bactericidal activity. Cefazolin resistance was reversed with respect to the MBC [Domenico et al., 2003]. These effects were additive.

A further experiment concerns Burkholderia cepacia. The experiment can be described thus: Single-point BisEDT-antibiotic combination FICI. The following applies: Bcep 1756. The format is cell-based.
A further experiment relates to Acinetobacter baumanii. The experiment can be described thus: Single-point BisEDT-antibiotic combination FICI. The format is cell-based. The settings on record: Abau 2594.
The subject of experiment [5] is Staphylococcus aureus (SA, MRSA). The experiment can be described thus: Single-point BisEDT-antibiotic combination FICI. The format is cell-based.
The next experiment relates to Escherichia coli. As to the kind of experiment: Single-point BisEDT-antibiotic combination FICI. The format is cell-based. The settings on record: EC 2232.
Experiment [6] relates to B. cepacia (B. multivorans, B. cenocepacia). The experiment can be described thus: MIC and FIC index, tobramycin + BisEDT. The format is cell-based, Burkholderia cepacia. The settings on record: 0.4 μg/ml BisEDT.
Another experiment concerns Pseudomonas aeruginosa. The experiment can be described thus: Single-point BisEDT-antibiotic combination FICI. The format is cell-based. The following applies: PA 1380.
The next experiment deals with Enterococcus faecalis. The experiment can be described thus: Single-point BisEDT-antibiotic combination FICI. The format is cell-based. The settings on record: E Fc 3121.
A further experiment relates to Bukholderia multivorans. As to the kind of experiment: Single-point BisEDT-antibiotic combination FICI. The format is cell-based. The following applies: Bmult 5665.
The next experiment has as its system Klebsiella pneumoniae. The experiment can be described thus: Single-point BisEDT-antibiotic combination FICI. The format is cell-based. The settings on record: KP 1231.
For experiment [7], the system named is Streptococcus pneumoniae (SP, PRSP). The experiment can be described thus: Single-point BisEDT-antibiotic combination FICI. The settings on record: PRSP 5348.
[8] abbreviates: S. aureus ATCC 25923, BE = 0.2 μg/ml BisEDT.
Where [9] appears, read: S. epidermidis S2400-1, BisEDT 0.1 μg/ml.
Where [10] appears, read: tobramycin-resistant Burkholderia cepacia.

Like-named read-outs stand apart in the source and are kept apart here.

For `CC1(C)S[C@@H]2[C@H](NC(=O)[C@H](N)c3ccccc3)C(=O)N2[C@H]1C(=O)O` [AM, ampicillin], in the experiment on resistant E. coli (Escherichia coli, read-out: Drug + BE MIC, Chloramphenicol/Ampicillin resistant E. coli, BE 0.33 μg/ml), the MIC worked out at 49 µg/mL.
On to `C[C@H]1c2cccc(O)c2C(=O)C2=C(O)[C@]3(O)C(=O)C(C(N)=O)=C(O)[C@@H](N(C)C)[C@@H]3[C@@H](O)[C@@H]21` [DOX, doxycycline], for which, in the experiment with resistant E. coli (E. coli TET M and TET D strains), the “FIC, doxycycline + subMIC BisEDT” value is 0.5.
On to `CO[C@H]1/C=C/O[C@@]2(C)Oc3c(C)c(O)c4c(O)c(c(/C=N/N5CCN(C)CC5)c(O)c4c3C2=O)NC(=O)/C(C)=C\C=C\[C@H](C)[C@H](O)[C@@H](C)[C@@H](O)[C@@H](C)[C@H](OC(C)=O)[C@@H]1C` [Rifampin], for which the values for the Quantitative graft culture in experiment [1] (methicillin-resistant S. epidermidis) and in [1] (methicillin-susceptible S. epidermidis) were 7.6 × 10^4 ± 2.1 × 10^4 cfu/cm^2 and 5.9 × 10^3 ± 1.8 × 10^3 cfu/cm^2, respectively. For the same compound, the Δ in the experiment with S. aureus (MRSA S2446-3, BE = 0.2 μg/ml BisEDT) amounted to 1.0; with S. aureus (setting [8]), 13.0. The Synergy entry with S. aureus (setting [8]) is “+ (Synergy was also defined conventionally as ≧4-fold decrease in antibiotic concentration)”. Further, the MIC in the experiment with S. aureus (Staphylococcus aureus, ATCC25923, S. aureus ATCC 25923, antibiotic alone, read-out: MIC) is 0.033 µg/mL; with S. aureus (Staphylococcus aureus, ATCC25923, S. aureus ATCC 25923, with 0.2 μg/ml BisEDT, read-out: MIC + BE), 0.003 µg/mL; with S. aureus (Staphylococcus aureus, MRSA, MRSA S2446-3, antibiotic alone, read-out: MIC), 2.5 µg/mL; in the experiment on S. aureus (Staphylococcus aureus, MRSA, MRSA S2446-3, with 0.2 μg/ml BisEDT, read-out: MIC + BE) it was 2.5 µg/mL; in the experiment with S. epidermidis [2] (S. epidermidis ATCC 35984, BisEDT 0.0 μg/ml), 0.021 µg/mL; with S. epidermidis [2] (S. epidermidis ATCC 35984, BisEDT 0.05 μg/ml), 0.014 µg/mL. Besides, the MIC in the experiment on S. epidermidis [2] (S. epidermidis S2400-1, BisEDT 0 μg/ml) came out at 0.03 µg/mL; with S. epidermidis [2] (S. epidermidis S2400-1, BisEDT 0.05 μg/ml), 0.04 µg/mL; in the experiment with S. epidermidis [2] (setting [9]) it was 0.04 µg/mL. For the same compound, the “Change of biofilm prevention concentration (BPC)” value with S. epidermidis biofilm is on record as “remained unaffected”. Further, the “Δ, MIC” value with S. epidermidis [2] (S. epidermidis ATCC 35984, 0.05 μg/ml BisEDT) came to 1.5. In addition, in the experiment on S. epidermidis [2] (S. epidermidis S2400-1, 0.05 μg/ml BisEDT), the “Δ (0.05 BE), MIC” value is given as 0.75. Moreover, the “Δ (0.1 BE), MBC” value in the experiment with S. epidermidis [2] (S. epidermidis S2400-1, 0.1 μg/ml BisEDT) is given as 0.43. Further, the MBC in the experiment on S. epidermidis [2] (S. epidermidis S2400-1, BisEDT 0.0 μg/ml) amounted to 0.03 µg/mL; with S. epidermidis [2] (setting [9]), 0.07 µg/mL. In addition, in experiment [3] (0.05 μg/ml BisEDT), the “Δ (0.05 BE), biofilm prevention” value turned out to be 0.7. For the same compound, the entries for the “Biofilm Prevention (antibiotic concentration)” value in experiment [3] (BisEDT 0 μg/ml), in [3] (BisEDT 0.05 μg/ml) and in experiment [3] (BisEDT 0.1 μg/ml) were 0.03 µg/mL, 0.04 µg/mL and 0.04 µg/mL, respectively. The “Reduction in MBC with subMIC BisEDT” value in the experiment with S. epidermidis [4] is listed as “remained largely unaffected”. The “MIC change (growth inhibition) with BisEDT” value in the experiment with S. epidermidis [4] (0.1 μg/ml (0.5 μM) BisEDT) was “unaffected”.
Consider `NC[C@H]1O[C@H](O[C@H]2[C@H](O)[C@@H](O[C@H]3O[C@H](CO)[C@@H](O)[C@H](N)[C@H]3O)[C@H](N)C[C@@H]2N)[C@H](N)C[C@@H]1O` [Tobramycin], for which the “FICI, single-point BisEDT-antibiotic combination” value was 0.91 with Burkholderia cepacia; 1.12 with Acinetobacter baumanii; 0.78 in experiment [5] (MRSA 773); 0.73 in [5] (SA 100); 0.96 in the experiment on Escherichia coli; 1.29 with Pseudomonas aeruginosa. Moreover, the “FICI, single-point BisEDT-antibiotic combination” value in the experiment on Enterococcus faecalis is 0.47; in the experiment on Bukholderia multivorans, 0.67; in the experiment on Klebsiella pneumoniae, 0.87; in [7], 0.57. Also, the MBC in the experiment on S. aureus (Staphylococcus aureus, Tobramycin resistant strains table, S. aureus SA-29213, read-out: NN MBC) is 2 µg/mL. Also, in the experiment on S. aureus (Staphylococcus aureus, Tobramycin resistant strains table, S. aureus SA-29213, read-out: NN MIC), the MIC was 2 µg/mL. Also, the “Isolates rendered tobramycin sensitive” value in experiment [6] is recorded as “seven of 10”. Further, the “Fold reduction of tobramycin MIC90” value in experiment [6] (setting [10]) is 10 fold. Besides, the “mean FIC” value in [6] (setting [10]) is recorded as 0.48.

As usually defined, the MBC is the lowest tested concentration that kills the bacteria rather than only halting them.

These data come from patent US9408393B2, “Bismuth-thiols as antiseptics for agricultural, industrial and other uses” (Microbion Corporation, priority 2010, dated 2016).
